Like-named read-outs stand apart in the source and are kept apart here.
How the values were obtained:
CYP3A = CYP3A activity by oral microdosed midazolam; settings: for AUC: both, human, in vivo, geom. mean
[1] = cited from earlier work
[2] = cited from earlier work; remark: listed apart in the source
[3] = Pharmacokinetics of oral microdosed FXaI cocktail; settings: for sex differences in pharmacokinetics (in words): 7 male, 11 female; for Ae (amount excreted in urine as parent drug) / Cl/F (apparent oral clearance): geom. mean (95% CI); for interaction / change of pharmacokinetics during voriconazole (in words): microdose cocktail with voriconazole
[4] = Safety: adverse events in study participants; settings: for total number of AEs / participants with adverse event (AE): during the treatment named; for participants with adverse event (AE): healthy participants
[5] = FXaI with cobicistat / FXaI alone
[6] = microdose cocktail alone, cobicistat cohort (n = 6)
[7] = microdose cocktail alone, rifampicin cohort (n = 6)
[8] = microdose cocktail alone, voriconazole cohort (n = 6)
[9] = microdose cocktail during voriconazole (n = 6)

Cc1ncc2n1-c1ccc(Cl)cc1C(c1ccccc1F)=NC2 [midazolam]
AUC (CYP3A; AUC2–4, 10 μg midazolam + cobicistat (n = 6)): 0.27 ng·h/mL | AUC (CYP3A; AUC2–4, 10 μg midazolam + voriconazole (n = 6)): 0.285 ng·h/mL

Cn1c(Cn2ccc(C(F)(F)F)c(Oc3cc(Cl)cc(C#N)c3)c2=O)n[nH]c1=O [doravirine]
elimination half-life ([1]; alone): 18.6 h | elimination half-life ([1]; with a single dose of rifampicin): 5.5 h

O=C(NC[C@H]1CN(c2ccc(N3CCOCC3=O)cc2)C(=O)O1)c1ccc(Cl)s1 [rivaroxaban]
AUC ratio with and without ketoconazole ([2]; microdosed FXaI cocktail): 2.27 | AUC ratio with and without ketoconazole ([2]; therapeutic dose, single-dose, 200 mg ketoconazole): 1.82 | AUC ratio with and without ketoconazole ([2]; therapeutic dose, steady-state, 400 mg ketoconazole): 2.58 | share of CYP3A and CYP2J2 in total clearance [1]: ~ 32% | sex differences in pharmacokinetics (in words) [3]: No sex differences | AUC ratio (AUCR) [3, 5]: 2.0 | Cmax ratio [3, 5]: 1.39 | Vss/F reduced to (% of FXaI alone) ([3]; by cobicistat): 72% | renal clearance reduced by ([3]; by cobicistat): ~50% | terminal elimination half-life prolongation ([3]; by cobicistat): 40% | Vss/F reduced to (% of FXaI alone) ([3]; by single dose rifampicin): 64% | terminal elimination half-life shortening ([3]; by single dose rifampicin): 31% | change of AUC ([3]; by voriconazole): 33% | reduction of apparent oral clearance (Cl/F) ([3]; by voriconazole): 33% | Ae (amount excreted in urine as parent drug) [3, 6]: 44.5 (32.5–61.1) % of dose | Cl/F (apparent oral clearance) [3, 6]: 104 (84–129) mL/min | Ae (amount excreted in urine as parent drug) [3, 7]: 54.8 (48.7–61.6) % of dose | Cl/F (apparent oral clearance) [3, 7]: 113 (84–152) mL/min | Ae (amount excreted in urine as parent drug) [3, 8]: 53.7 (46.2–60.1) % of dose | Cl/F (apparent oral clearance) [3, 8]: 121 (85–172) mL/min | Ae (amount excreted in urine as parent drug) [3, 9]: 55.5 (47.8–64.4) % of dose | Cl/F (apparent oral clearance) [3, 9]: 92 (62–137) mL/min | interaction / change of pharmacokinetics during voriconazole (in words) [3]: minor interaction

C[C@@H](c1ncncc1F)[C@](O)(Cn1cncn1)c1ccc(F)cc1F [voriconazole]
total number of AEs [4]: 7 | participants with adverse event (AE) [4]: Five out of 6 | visual disturbances (number of AEs) ([4]; during voriconazole treatment): 4 | CYP3A inhibition (in words) (CYP3A; judged from microdosed midazolam exposure): strong CYP3A inhibitors

CC(C)c1nc(CN(C)C(=O)N[C@@H](CCN2CCOCC2)C(=O)N[C@H](CC[C@H](Cc2ccccc2)NC(=O)OCc2cncs2)Cc2ccccc2)cs1 [cobicistat]
total number of AEs [4]: 3 | participants with adverse event (AE) [4]: 3 out of 6

CN1CCc2nc(C(=O)N[C@@H]3C[C@@H](C(=O)N(C)C)CC[C@@H]3NC(=O)C(=O)Nc3ccc(Cl)cn3)sc2C1 [edoxaban]
oral bioavailability [1]: ~ 50% | excreted unchanged into urine ([1]; of an oral dose): About 24% | found in faeces as parent drug ([1]; of the oral dose): ~ 50% | sex differences in pharmacokinetics (in words) [3]: No sex differences | Cl/F reduced to (% of FXaI alone) ([3]; by cobicistat): 57% | Vss/F reduced to (% of FXaI alone) ([3]; by cobicistat): 42% | terminal elimination half-life shortening ([3]; by cobicistat): 25% | Cl/F reduced to (% of FXaI alone) ([3]; by single dose rifampicin): 53% | Vss/F reduced to (% of FXaI alone) ([3]; by single dose rifampicin): 37% | terminal elimination half-life shortening ([3]; by single dose rifampicin): 30% | increased fraction excreted unchanged into urine ([3]; by single oral dose of rifampicin): 48.7% | Ae (amount excreted in urine as parent drug) [3, 6]: 32.3 (23.6–44.3) % of dose | Cl/F (apparent oral clearance) [3, 6]: 682 (578–804) mL/min | Ae (amount excreted in urine as parent drug) [3, 7]: 27.2 (19.1–38.8) % of dose | Cl/F (apparent oral clearance) [3, 7]: 643 (499–829) mL/min | Ae (amount excreted in urine as parent drug) [3, 8]: 24.4 (17.7–33.6) % of dose | Cl/F (apparent oral clearance) [3, 8]: 882 (619–1255) mL/min | Ae (amount excreted in urine as parent drug) [3, 9]: 29.4 (21.2–40.8) % of dose | Cl/F (apparent oral clearance) [3, 9]: 700 (445–1100) mL/min | interaction / change of pharmacokinetics during voriconazole (in words) [3]: none and No significant change

CO[C@H]1/C=C/O[C@@]2(C)Oc3c(C)c(O)c4c(O)c(c(/C=N/N5CCN(C)CC5)c(O)c4c3C2=O)NC(=O)/C(C)=C\C=C\[C@H](C)[C@H](O)[C@@H](C)[C@@H](O)[C@@H](C)[C@H](OC(C)=O)[C@@H]1C [rifampicin]
participants with adverse event (AE) [4]: none

COc1ccc(-n2nc(C(N)=O)c3c2C(=O)N(c2ccc(N4CCCCC4=O)cc2)CC3)cc1 [apixaban]
excreted unchanged into faeces and urine ([1]; given orally): ≥ 50% | fraction metabolised by CYP1A2 and CYP2J2 ([1]; given orally): about 6% | fraction metabolised via CYP3A ([1]; given orally): approximately 15% | not identified or recovered so far ([1]; given orally): about 22% | sex differences in pharmacokinetics (in words) [3]: No sex differences | Cl/F reduced to (% of FXaI alone) ([3]; by cobicistat): 60% | Vss/F reduced to (% of FXaI alone) ([3]; by cobicistat): ~50% | increase of AUC ([3]; by cobicistat): 67% | reduction of clearance ([3]; by cobicistat): 40% | Cl/F reduced to (% of FXaI alone) ([3]; by single dose rifampicin): 75% | Vss/F reduced to (% of FXaI alone) ([3]; by single dose rifampicin): ~50% | effect on Cmax (increase) ([3]; by single dose rifampicin): 69% | reduction of clearance ([3]; by single dose rifampicin): 25% | terminal elimination half-life shortening ([3]; by single dose rifampicin): ~40% | Cl/F reduced to (% of FXaI alone) ([3]; by voriconazole): 75% | effect on Cmax (increase) ([3]; by voriconazole): 15% | reduction of apparent oral clearance (Cl/F) ([3]; by voriconazole): 25% | renal clearance reduced to (% of FXaI alone) ([3]; during cobicistat): 70% | Cl/F (apparent oral clearance) [3, 6]: 66.4 (60.0–73.5) mL/min | Cl/F (apparent oral clearance) [3, 7]: 53.6 (44.5–64.6) mL/min | Cl/F (apparent oral clearance) [3, 8]: 78.0 (69.0–88.4) mL/min | Cl/F (apparent oral clearance) [3, 9]: 58.8 (42.5–81.4) mL/min | interaction / change of pharmacokinetics during voriconazole (in words) [3]: minor interaction
